Structures are written as SMILES. In brackets after ≈: the same amount, converted by molar mass.

The subject of one experiment is DNA. Kind of experiment: Binding affinity to calf thymus DNA. To be noted: Bos taurus. In kind it is nucleic-acid assay.
A further experiment deals with Escherichia coli. Description: Antimicrobial activity against Escherichia coli. It is filed as functional.
For the next experiment, the system named is Pseudomonas aeruginosa. Kind of experiment: Antimicrobial activity against Pseudomonas aeruginosa. In kind it is functional.
The next experiment relates to Staphylococcus aureus. Description: Antimicrobial activity against Staphylococcus aureus. In kind it is functional.

On to `C[C@@H]1CN(c2c(F)c(N)c3c(=O)c(C(=O)O)cn(C4CC4)c3c2F)C[C@H](C)N1` [SPARFLOXACIN], for which the Kb with DNA worked out at 17100 M⁻¹. For the same compound, the MIC against Escherichia coli turned out to be 8 µg/mL (≈ 20.4 µM); against Pseudomonas aeruginosa, 0.25 µg/mL (≈ 0.637 µM); against Staphylococcus aureus it was 0.5 µg/mL (≈ 1.27 µM).

Broadly, the MIC is the least concentration at which growth counts as inhibited.

Source of the values: ChEMBL document CHEMBL1155091, “Structure, antimicrobial activity and DNA-binding properties of the cobalt(II)-sparfloxacin complex” (2008).
